The source of these data is patent publication US10626126B2, “Compounds” (Pulmocide Limited, priority 2016, dated 2020).

Common to all, as to assay type: cell-based
Series [1] has as its system RSV A2 strain. Briefly: RSV A2 induced CPE in HEp2 cells. The conditions noted are these: human respiratory syncytial virus; for IC50: HEp-2, 120 h, 5 days; for inhibition at 0.01 µg/mL: HEp-2, at 0.01 μg/mL. As for the experimental part: (§1) HEp2 cells were seeded (10^3/well/50 μL) in 384-well plates (Catalogue number 353962, BD Falcon, Oxford, UK) in 5% FBS-DMEM (containing 2 mM L-glutamine and 1 mM sodium pyruvate) one day before infection. […] Simultaneously, test compounds (0.5 μL DMSO solution) were added to 100 μL of HEp2 cell culture with virus solution to provide a final DMSO solution of 0.5%. […] Sigma-Aldrich, Dorset, UK) was added to each well and the plate incubated for a further 6 hr (37° C./5% CO2). The fluorescence of each well [545 nm (excitation)/590 nm (emission)] was determined using a multi-scanner (Clariostar: BMG, Buckinghamshire, UK). The percentage inhibition for each well was calculated and the IC50, IC75 and IC90 values were calculated from the concentration-response curve generated for each test compound.

The test system of series [2] is RSV B Washington strain. Description: RSV B induced CPE in HEp2 cells. The following applies: human respiratory syncytial virus; for IC50: HEp-2, 144 h, 6 days; for inhibition at 0.1 µg/mL: HEp-2, at 0.1 μg/mL; for inhibition at 1 µg/mL: HEp-2, at 1 μg/mL. As for the experimental part:
as §1

The nature of series [3]: Cell viability: resazurin assay. The conditions noted are these: human, HEp2 cells. As for the experimental part: HEp2 cells were seeded in 384-well plates (10^3/well/50 μL; BD Falcon Ref 353962) in FBS DMEM (5%, containing 2 mM L-glutamine and 1 mM sodium pyruvate) one day before experimentation. Serum-free DMEM (50 μL) was added to test wells, while for control wells the media was removed and sterile water (100 μL) added. Test compounds (0.5 μL DMSO solution) were added to give a final DMSO concentration of 0.5%. HEp2 cells were incubated with each test compound for 5 days (37° C./5% CO2 in 2.5% FBS) and then resazurin stock solution (5 μL; 0.03%) was added to each well and the plate incubated for a further 6 hr (37° C./5% CO2). The fluorescence of each well at 545 nm (excitation) and 590 nm (emission) was determined using a multi-scanner (Clariostar: BMG Labtech). The percentage loss of cell viability was calculated for each well relative to vehicle (0.5% DMSO) treatment. Note that any apparent increase in cell viability associated with test compound treatment relative to vehicle is consequently tabulated as a negative percentage. Where appropriate, a CC50 value was calculated from the concentration-response curve generated from the concentration-response curve for each test compound.
Background: Alamar Blue is a resazurin reagent that responds to reducing activity.

Bounds are passed on as bounds.

As usually defined, the IC50 is the concentration needed to halve the response being measured. A high value points to weaker potency. The term inhibition denotes the drop in the measured response relative to a control, in per cent. Low values mean little suppression, high ones strong suppression. The term CC50 denotes the concentration that lowers cell viability or growth by half. Low values mean harm at low concentration, high ones better tolerance by the cells.

`O=C(Nc1c(F)cccc1F)c1cc2c(s1)-c1sccc1N(C(=O)c1ccc(NC(=O)c3cc4c(nc3N3CC5(CCOCC5)C3)CCC4)cc1)CC2` [Example 2, 4-(4-(2-(7-Oxa-2-azaspiro[3.5]nonan-2-yl)-6,7-dihydro-5H-cyclopenta[b]pyridine-3-carboxamido)benzoyl)-N-(2,6-difluorophenyl)-5,6-dihydro-4H-dithieno[3,2-b: 2′,3′-d]azepine-8-carboxamide]: in series [1], inhibition was half-maximal at 0.37 nM (IC50) and the inhibition at 0.01 µg/mL came to 97%. In series [2], the IC50 stood at 8.7 nM and 0.1 µg/mL produced 86% inhibition. Moreover, the CC50 at 5 days in series [3] is > 13.3 µM.
For `[2H]c1c([2H])c(C(=O)N2CCc3cc(C(=O)Nc4c(F)cccc4F)sc3-c3sccc32)c([2H])c([2H])c1NC(=O)c1cc(C)cnc1N1CC2(CCOCC2)C1` [Example 3, N-(2,6-difluorophenyl)-4-(4-(5-methyl-2-(7-oxa-2-azaspiro[3.5]nonan-2-yl)nicotinamido)benz-y-2,3,5,6-d4)-5,6-dihydro-4H-dithieno[3,2-b:2′,3′-d]azepine-8-carboxamide], in that order: 0.15 nM, 95%, 14 nM, 100% and > 13.7 µM.
For `Cc1cc(C(=O)Nc2ccc(C(=O)N3CCc4cc(C(=O)Nc5c(F)cccc5F)sc4-c4sccc43)cc2)c(N2CC3(CCOCC3)C2)nc1C` [Example 4, N-(2,6-Difluorophenyl)-4-(4-(5,6-dimethyl-2-(7-oxa-2-azaspiro[3.5]nonan-2-yl)nicotinamido)benzoyl)-5,6-dihydro-4H-dithieno[3,2-b:2′,3′-d]azepine-8-carboxamide], in that order: 0.28 nM, 96%, 18 nM, 98% and > 13.5 µM.
For `Cc1ccc(C(=O)Nc2ccc(C(=O)N3CCc4cc(C(=O)Nc5c(F)cccc5F)sc4-c4sccc43)c(F)c2)c(N2CC3(CCOCC3)C2)n1` [Example 5, N-(2,6-Difluorophenyl)-4-(2-fluoro-4-(6-methyl-2-(7-oxa-2-azaspiro[3.5]nonan-2-yl)nicotinamido)benzoyl)-5,6-dihydro-4H-dithieno[3,2-b:2′,3′-d]azepine-8-carboxamide], in that order: 0.55 nM, 89%, 19 nM, 97% and > 13.4 µM.
Take `O=C(Nc1c(F)cccc1F)c1cc2c(s1)-c1sccc1N(C(=O)c1ccc(NC(=O)c3cccnc3N3CC4(CCOCC4)C3)cc1)CC2` [Example 6, 4-(4-(2-(7-oxa-2-azaspiro[3.5]nonan-2-yl)nicotin-amido)benzoyl)-N-(2,6-difluorophenyl)-5,6-dihydro-4H-dithieno[3,2-b:2′,3′-d]azepine-8-carboxamide]: in series [1], the midpoint of inhibition, the IC50, lay at 0.44 nM and the inhibition at 0.01 µg/mL stood at 93%. In series [2], this molecule registered an IC50 of 63 nM and an inhibition at 1 µg/mL of 95%. Also, the CC50 at 5 days in series [3] is > 14 µM.
The corresponding values for `O=C(Nc1c(F)cccc1F)c1cc2c(s1)-c1sccc1N(C(=O)c1ccc(NC(=O)c3cccnc3N3CC4(CCOCC4)C3)cc1F)CC2` [Example 7, 4-(4-(2-(7-oxa-2-azaspiro[3.5]nonan-2-yl)nicotinamido)-2-fluorobenzoyl)-N-(2,6-difluorophenyl)-5,6-dihydro-4H-dithieno[3,2-b:2′,3′-d]azepine-8-carboxamide] are 2.6 nM, 87%, 97 nM, 82% and > 13.7 µM.
The corresponding values for `Cc1cnc(N2CC3(CCOCC3)C2)c(C(=O)Nc2ccc(C(=O)N3CCc4cc(C(=O)Nc5ccccc5)sc4-c4sccc43)cc2)c1` [Example 8, 4-(4-(5-methyl-2-(7-oxa-2-azaspiro[3.5]nonan-2-yl)nicotinamido)benzoyl)-N-phenyl-5,6-dihydro-4H-dithieno [3,2-b:2′,3′-d]azepine-8-carboxamide] are 0.68 nM, 100%, 137 nM, 97% and > 14.5 µM.
On to `Cc1cnc(N2CC3(CCOCC3)C2)c(C(=O)Nc2ccc(C(=O)N3CCc4cc(C(=O)Nc5ccccc5F)sc4-c4sccc43)cc2)c1` [Example 9, N-(2-fluorophenyl)-4-(4-(5-methyl-2-(7-oxa-2-azaspiro[3.5]nonan-2-yl)nicotinamido)benzoyl)-5,6-dihydro-4H-dithieno[3,2-b:2′,3′-d]azepine-8-carboxamide], for which, in series [1], half-maximal inhibition (IC50) was put at 0.18 nM and the inhibition at 0.01 µg/mL was 100%. In series [2], this molecule came in with an IC50 of 54 nM and an inhibition at 0.1 µg/mL of 100%. In series [3], the CC50 at 5 days was > 14.1 µM.
In series [1], `Cc1cnc(N2CC3(CCOCC3)C2)c(C(=O)Nc2ccc(C(=O)N3CCc4cc(C(=O)Nc5ccc(F)cc5F)sc4-c4sccc43)cc2)c1` [Example 10, N-(2,4-difluorophenyl)-4-(4-(5-methyl-2-(7-oxa-2-azaspiro[3.5]nonan-2-yl)nicotinamido)benzoyl)-5,6-dihydro-4H-dithieno[3,2-b:2′,3′-d]azepine-8-carboxamide] showed an IC50 of 0.75 nM and an inhibition at 0.01 µg/mL of 97%. Moreover, in series [2], inhibition was half-maximal at 123 nM (IC50) and the inhibition at 1 µg/mL came to 100%. In series [3], the CC50 at 5 days is > 13.8 µM.
In series [1], `Cc1cnc(N2CC3(CCOCC3)C2)c(C(=O)Nc2ccc(C(=O)N3CCc4cc(C(=O)Nc5c(C)cccc5F)sc4-c4sccc43)cc2)c1` [Example 11, N-(2-fluoro-6-methylphenyl)-4-(4-(5-methyl-2-(7-oxa-2-azaspiro[3.5]nonan-2-yl)nicotinamido)benzoyl)-5,6-dihydro-4H-dithieno[3,2-b:2′,3′-d]azepine-8-carboxamide] gave an IC50 of 0.21 nM and an inhibition at 0.01 µg/mL of 100%. In series [2], half-maximal inhibition (IC50) required 8.3 nM and the inhibition at 0.1 µg/mL came out at 100%. Further, in series [3], the CC50 at 5 days is > 13.9 µM.
Regarding `Cc1cnc(N2CC3(CCOCC3)C2)c(C(=O)Nc2ccc(C(=O)N3CCc4cc(C(=O)Nc5c(Cl)cccc5Cl)sc4-c4sccc43)cc2)c1` [Example 13, N-(2,6-dichlorophenyl)-4-(4-(5-methyl-2-(7-oxa-2-azaspiro [3.5]nonan-2-yl)nicotinamido)benzoyl)-5,6-dihydro-4H-dithieno[3,2-b:2′,3′-d]azepine-8-carboxamide], in series [1], half-maximal inhibition (IC50) was put at 0.14 nM and 0.01 µg/mL produced 77% inhibition. In series [2], this molecule registered an IC50 of 1.2 nM and an inhibition at 1 µg/mL of 80%. Moreover, the CC50 at 5 days in series [3] was > 13.2 µM.
The corresponding values for `Cc1cnc(N2CC3(CCOCC3)C2)c(C(=O)Nc2ccc(C(=O)N3CCc4cc(C(=O)Nc5c(O)cccc5F)sc4-c4sccc43)cc2)c1` [Example 15, N-(2-fluoro-6-hydroxyphenyl)-4-(4-(5-methyl-2-(7-oxa-2-azaspiro[3.5]nonan-2-yl)nicotinamido)benzoyl)-5,6-dihydro-4H-dithieno[3,2-b:2′,3′-d]azepine-8-carboxamide] are 0.3 nM, 100%, 86 nM, 90% and > 13.8 µM.
As for `COc1cccc(F)c1NC(=O)c1cc2c(s1)-c1sccc1N(C(=O)c1ccc(NC(=O)c3cc(C)cnc3N3CC4(CCOCC4)C3)cc1)CC2` [Example 16, N-(2-fluoro-6-methoxyphenyl)-4-(4-(5-methyl-2-(7-oxa-2-azaspiro[3.5]nonan-2-yl)nicotinamido)benzoyl)-5,6-dihydro-4H-dithieno[3,2-b:2′,3′-d]azepine-8-carboxamide], in series [1], half-maximal inhibition (IC50) was put at 0.18 nM and testing at 0.01 µg/mL gave an inhibition of 96%. Moreover, in series [2], the midpoint of inhibition, the IC50, lay at 32 nM and the inhibition at 0.1 µg/mL worked out at 100%. In series [3], the CC50 at 5 days is > 13.6 µM.
The corresponding values for `Cc1cnc(N2CC3(CCOCC3)C2)c(C(=O)Nc2ccc(C(=O)N3CCc4cc(C(=O)Nc5c(F)cc(F)cc5F)sc4-c4sccc43)cc2)c1` [Example 17, 4-(4-(5-methyl-2-(7-oxa-2-azaspiro[3.5]nonan-2-yl)nicotinamido)benzoyl)-N-(2,4,6-trifluorophenyl)-5,6-dihydro-4H-dithieno[3,2-b:2′,3′-d]azepine-8-carboxamide] are 0.17 nM, 92%, 19 nM, 100% and > 13.4 µM.
